Test results from patent US20220146519A1, “INTEGRIN ALPHA V BETA 3 TARGETING PROBE FOR DIAGNOSING RETINOCHOROIDAL NEOVASCULAR DISEASES AND PREPARATION METHOD THEREFOR” (SEOUL NATIONAL UNIVERSITY HOSPITAL, priority 2019, published 2022).
Entries after “also recorded” stand apart in the source; their conditions may differ.

How the values were obtained:
[1] = test system: integrin αvβ3; assay: Fluorescence staining of vessels in retinal and choroidal flatmounts using FITC-labeled RGD peptide; set-up: species or system mouse; settings: for staining of choroidal neovascularization lesions (laser-treated areas): ex vivo choroidal flatmount, 7 days after laser-induced choroidal neovascularization, C57BL/6 mice
Method: After intravenous anesthesia using a 1:1 mixture of 100 mg/mL ketamine and 20 mg/mL xylazine and pupillary dilatation using 5.0% phenylephrine and 0.8% tropicamide, C57BL/6 mice were placed on the Mayo stand (Coherent PC-920 Argon Ion Laser System; Coherent Medical Laser, Santa Clara, Calif.). Choroidal neovascularization was induced using 512-nm argon laser photocoagulation, with 100 urn of spot size and 100 mW of power for 0.1 s in the right eye. Five lesions of about 2-3 disc diameters were generated from the optic disc. The formation of bubbles upon laser delivery can be considered sufficient damage to induce rupture of Bruch's membrane and choroidal neovascularization. When subretinal hemorrhage occurred after the laser treatment, the mice were excluded from the experiment.
Ten eyes were prepared as choroidal flatmounts. For the flatmounts, mice were anesthetized at days 7 or 14 and eyes were enucleated and fixed with 4% paraformaldehyde for 30 min at 4° C. The anterior segment and retina were removed from the eyecup, and four radial incisions were made. The remaining retinal pigment epithelium (RPE)-choroid-sclera complex was flatmounted and coverslipped. Flatmounts were examined with a scanning laser confocal microscope (LSM710; Carl Zeiss, Oberkochen, Germany). […]
Fluorescence staining with FITC-D-[c(RGDfK)]^2 was performed as follows: • (1) the retinal and choroidal flatmounts were washed with PBS and incubated with FITC-D-[c(RGDfK)]2 for 30 minutes; • (2) the slides were washed with PBS several times, counterstained with 4′,6-diamidino-2-phenylindole (DAPI), and mounted with ProLong Gold anti-fade reagent (Life Technologies, Carlsbad, Calif., USA); • (3) and after staining, the flatmounts were mounted with the vitreous side up on glass slides and visualized on a confocal microscope (LSM710; Carl Zeiss, Oberkochen, Germany).

[2] = test system: integrin αvβ3; assay: Specificity of FITC-D-[c(RGDfK)]2 staining evaluated with excess cRGD peptides; type: binding, mouse; settings: 10 nM probe; 2-hour incubation with 200 nM (20-fold) cRGD before staining; choroidal flatmount
Method: Additionally, the specificity of FITC-D-[c(RGDfK)]2 staining was evaluated by using an excess of cRGD peptides. For this experiment, one mouse with identical laser-induced choroidal neovascularization in both eyes was sacrificed. One eye of the mouse was stained with the staining method described above using 10 nM of FITCD-[c(RGDfK)]2. The other eye was stained with the staining method described above plus a 2-hour incubation with excess cRGD peptides (for example, 20-fold molar concentration of the FITC-conjugated cRGD dimer, i.e., 200 nM) prior to the fluorescence staining. In this staining, the present inventors used an integrin αvβ3 antibody to investigate if the staining with the integrin αvβ3 antibody co-localized with that of the FITC-conjugated cRGD dimer.

Chain of integrin αvβ3 (P43406 31-885 limits assumed): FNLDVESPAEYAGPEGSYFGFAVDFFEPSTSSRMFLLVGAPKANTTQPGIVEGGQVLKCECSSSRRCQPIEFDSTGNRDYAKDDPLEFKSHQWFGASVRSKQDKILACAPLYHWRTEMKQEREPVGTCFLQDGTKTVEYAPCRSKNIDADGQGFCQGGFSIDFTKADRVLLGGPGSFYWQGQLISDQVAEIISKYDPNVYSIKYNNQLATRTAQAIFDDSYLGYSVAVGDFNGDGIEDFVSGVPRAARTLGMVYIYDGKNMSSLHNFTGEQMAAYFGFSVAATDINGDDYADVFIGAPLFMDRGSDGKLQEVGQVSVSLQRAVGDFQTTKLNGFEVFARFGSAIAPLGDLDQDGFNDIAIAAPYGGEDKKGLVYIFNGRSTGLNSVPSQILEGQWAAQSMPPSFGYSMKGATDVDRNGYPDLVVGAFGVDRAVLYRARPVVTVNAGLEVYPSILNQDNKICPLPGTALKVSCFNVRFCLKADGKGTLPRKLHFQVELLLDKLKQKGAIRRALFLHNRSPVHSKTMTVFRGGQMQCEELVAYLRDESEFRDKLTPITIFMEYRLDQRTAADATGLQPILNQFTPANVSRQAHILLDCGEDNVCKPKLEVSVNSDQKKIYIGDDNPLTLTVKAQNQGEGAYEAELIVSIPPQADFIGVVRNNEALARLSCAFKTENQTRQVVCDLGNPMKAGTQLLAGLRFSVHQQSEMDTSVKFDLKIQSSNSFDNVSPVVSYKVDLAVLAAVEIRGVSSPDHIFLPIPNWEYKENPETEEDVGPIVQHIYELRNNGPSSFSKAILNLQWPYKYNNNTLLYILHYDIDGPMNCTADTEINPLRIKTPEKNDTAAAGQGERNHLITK
Chain of integrin αvβ3 (P43406 887-1044 partner limits assumed): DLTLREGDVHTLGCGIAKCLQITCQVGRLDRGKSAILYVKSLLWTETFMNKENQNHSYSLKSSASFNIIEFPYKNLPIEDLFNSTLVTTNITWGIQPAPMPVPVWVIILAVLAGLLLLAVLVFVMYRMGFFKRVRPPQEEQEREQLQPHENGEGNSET
Chain of integrin αvβ3 (O54890 26-787, further chain): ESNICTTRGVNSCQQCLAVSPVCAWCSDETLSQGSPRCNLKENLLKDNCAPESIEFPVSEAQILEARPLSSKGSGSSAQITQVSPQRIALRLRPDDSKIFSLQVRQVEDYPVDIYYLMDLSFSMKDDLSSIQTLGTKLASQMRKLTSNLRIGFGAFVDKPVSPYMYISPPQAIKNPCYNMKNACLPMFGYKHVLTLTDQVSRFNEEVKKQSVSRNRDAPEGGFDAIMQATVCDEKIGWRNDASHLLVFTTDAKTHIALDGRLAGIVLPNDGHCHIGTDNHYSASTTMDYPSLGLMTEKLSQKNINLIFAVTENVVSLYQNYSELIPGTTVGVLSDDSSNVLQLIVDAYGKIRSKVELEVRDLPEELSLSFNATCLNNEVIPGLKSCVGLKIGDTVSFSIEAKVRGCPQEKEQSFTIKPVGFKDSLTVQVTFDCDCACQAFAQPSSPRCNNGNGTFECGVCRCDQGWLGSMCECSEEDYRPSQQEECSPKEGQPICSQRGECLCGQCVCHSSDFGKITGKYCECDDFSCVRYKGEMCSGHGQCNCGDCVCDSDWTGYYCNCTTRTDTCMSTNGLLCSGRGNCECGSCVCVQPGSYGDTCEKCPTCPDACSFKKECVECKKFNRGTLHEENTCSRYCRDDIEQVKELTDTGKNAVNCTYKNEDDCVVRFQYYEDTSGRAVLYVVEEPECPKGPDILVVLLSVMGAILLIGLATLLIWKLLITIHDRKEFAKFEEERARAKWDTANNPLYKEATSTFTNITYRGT

Question: With “FITC-D-[c(RGDfK)]2 [FITC-labeled cyclic RGD peptide]” as the substance, how does the “staining of choroidal neovascularization lesions (laser-treated areas)” value [1] read?
Answer: intense immunofluorescence staining; also recorded: allowed the visualization of choroidal neovascularization at laser-treated areas

Question: What about the “staining of choroidal neovascularization lesions (laser-treated areas)” value ([1]; listed as FITC-labeled RGD peptide) of the same substance?
Answer: laser-treated lesion stained with FITC-labeled RGD peptide corresponded to that stained with lectin

Question: What about the “staining of normal vessels in the retina” value ([1]; ex vivo untreated retina flatmount, lectin-positive normal vessels) of the same substance?
Answer: barely stained

Question: And the “fluorescence of probe after pre-incubation with excess cRGD” value [2]?
Answer: remarkably reduced
